From patent EP0067565A1, “Pharmaceutically active compounds” (BEECHAM GROUP PLC, priority 1981, dated 1982)

Legend:
[1] = system: rats; assay: Increase in intragastric pressure; type: in vivo; details: dose level of 1.0 mg/kg s.c.; conscious but restrained rats; average height of pressure waves, 40 minute period after administration vs pre-dose; Student's t test
Method: Intragastric pressure changes were recorded from previously starved conscious but restrained rats using a saline filled catheter inserted into the lumen of the stomach via a permanent gastric fistula. The catheter was connected to a physiological pressure transducer and pressure changes recorded on a hot wire pen recorder. In each animal a pre-dose period of 40 minutes was allowed to obtain a measure of spontaneous activity. An index of activity was obtained by measuring the average height of pressure waves during 10 minute periods. Values for 4 such periods were obtained during assessment of spontaneous activity and for 40 minute period after administration of compound. Student's "t" test was applied to the difference in average values obtained for spontaneous and post compound activity.

[2] = system: dog; assay: Anti-emetic activity in the dog (apomorphine-induced vomiting); type: in vivo; details: compound subcutaneously 30 minutes prior to apomorphine HC1 0.1 mg/kg subcutaneously; for ED50: Canis lupus familiaris, sc, read-out: ED50 values for inhibition of the vomiting response
Method: Compounds were administered subcutaneously 30 minutes prior to administration of a standard dose of apomorphine HC1 (0.1 mg/kg subcutaneously) and the vomiting response compared to that obtained when the same animals were dosed with apomorphine HC1 and vehicle only. The ED50 values for inhibition of the vomiting response determined for compound 11 and 13 were 1.0 mg/kg; for compound 33, 0.1 mg/kg and for compound 35, 0.01 mg/kg.

Compound	index of activity post administration [1]	ED50 [2] [mg/kg]	ED50 values for inhibition of the vomiting response [2] [mg/kg]
COc1cc(N)c(Cl)cc1C(=O)N[C@@H]1C[C@@H]2CCCN2[C@H](C)C1 (racemic) [Compound 8, (±) 4-Amino-5-chloro-2-methoxy-N-[7'β-(9'β-methyl-1'-aza-5'α-H-bicyclo[4,3,n]nonyl)]benzamide]	significantly increased		
COc1cc(N)c(Cl)cc1C(=O)N[C@H]1C[C@@H]2CCCN2[C@H](C)C1 (racemic) [Compound 9, (±) 4-Amino-5-chloro-2-methoxy-N-[7'α-(9'β-methyl-1'-aza-5'α-H-bicyclo[4,3,0]nonyl)]benzamide]	significantly increased		
COc1cc(N)c(Cl)cc1C(=O)N[C@@H]1C[C@@H]2CCCN2[C@@H](C)C1 (racemic) [Compound 11, (±) 4-Amino-5-chloro-2-methoxy-rd-[7'β-(9'α-methyl-1'-aza-5α-H-bicyclo[4,3,0]nonyl)]benzamide]	significantly increased	1	
COc1cc(N)c(Cl)cc1C(=O)N[C@H]1C[C@@H]2CCCN2[C@@H](C)C1 (racemic) [Compound 13, (±) 4-Amino-5-chloro-2-methoxy-N-[7'α-(9'α-methyl-1'-aza-5α-H-bicyclo[4,3,0]nonyl)]benzamide]		1	
CC[C@H]1C[C@H](NC(=O)c2cc(Cl)c(N)cc2OC)C[C@@H]2CCCN12 (racemic) [Compound 33, (±) 4-Amino-5-chloro-2-methoxy-N-[7'β-(9'α-ethyl-1'-aza-5'α-H-bicyclo[4,3,0]nonyl)]benzamide]		0.1	
(±) 4-Amino-5-chloro-2-methoxy-N-[7'β-(9'α-isopropyl-1'-aza-5'-α-H-bicyclo[4,3,0]nonyl)]benzamide [Compound 35]			0.01
